The target of the assay is T1, human mAChR M4 (Homo sapiens, UniProt P08173).
T1 construct: expressed in transfected cells; host or cells: CHO-K1 (ATCC), co-transfected with chimeric G protein Gqi5
T1 sequence (P08173 1-479): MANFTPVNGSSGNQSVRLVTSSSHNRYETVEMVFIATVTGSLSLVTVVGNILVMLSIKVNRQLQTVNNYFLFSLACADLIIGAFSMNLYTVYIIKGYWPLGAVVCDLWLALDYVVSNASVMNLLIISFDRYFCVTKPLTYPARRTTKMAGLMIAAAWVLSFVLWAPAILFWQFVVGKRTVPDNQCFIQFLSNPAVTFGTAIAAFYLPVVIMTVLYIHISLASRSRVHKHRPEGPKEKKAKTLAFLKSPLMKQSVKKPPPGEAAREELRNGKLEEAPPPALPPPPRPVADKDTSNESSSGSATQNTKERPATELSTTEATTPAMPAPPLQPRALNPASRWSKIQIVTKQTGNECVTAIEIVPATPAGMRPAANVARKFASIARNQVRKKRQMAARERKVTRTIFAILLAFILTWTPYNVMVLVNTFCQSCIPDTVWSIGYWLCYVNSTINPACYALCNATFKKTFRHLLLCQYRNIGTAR
Nature of the assay: mAChR M4 cell-based functional assay (calcium flux, antagonism of EC80 acetylcholine response, M4/Gqi5/CHO-K1 cells). As to conditions: for IC50: decrease of the response elicited by an EC80 concentration of acetylcholine, CHO-K1 cells, Gqi5. Summed up:
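CHO-K1 cells stably expressing human M4 with chimeric Gqi5, loaded with Fluo-4 AM; calcium flux read on FDSS. Compounds (10-point, 1:3 curves) added first, then EC20 acetylcholine at 143 s and EC80 at 268 s. IC50 from decrease of EC80 acetylcholine response, four-parameter logistic fit.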
On the technique in general: Calcium flux is commonly read through the fluorescence of an indicator in the cells.

As for `[2H]C([2H])([C@@H]1CCOC(C)(C)C1)N1C[C@H]2C[C@H](Nc3ccc(-c4cccnc4C(F)(F)F)nn3)C[C@H]2C1` [Compound 62, (3aR,5s,6aS)-2-(((R)-2,2-dimethyltetrahydro-2H-pyran-4-yl)methyl-d2)-N-(6-(2-(trifluoromethyl)pyridin-3-yl)pyridazin-3-yl)octahydrocyclopenta[c]pyrrol-5-amine], the IC50 came out at 1.1 nM. Moreover, for the setting “CHO-K1, % ACh maximum at 30 μM, read-out: Human M4 Emin”, the remaining activity at 30 µM turned out to be 4%.
Consider `[2H]C([2H])([C@H]1CCOC(C)(C)C1)N1C[C@H]2C[C@H](Nc3ccc(-c4cccnc4C(F)(F)F)nn3)C[C@H]2C1` (single isomer, unassigned) [Compound 61], for which the IC50 came to 3.1 nM.

In general, IC50 refers to the midpoint of a concentration-inhibition curve.

Source of the values: patent US20240109873A1, “ANTAGONISTS OF THE MUSCARINIC ACETYLCHOLINE RECEPTOR M4” (Vanderbilt University, priority 2020, published 2024).
